Results published in patent publication US10350262B2, “MCJ agonists and uses therefor” (priority 2015, dated 2019).
Non-standard residues stand in square brackets, D forms with d. No end group written: not given here. Cha = N[C@@H](CC1CCCCC1)C(=O)O

Experiments:
MCF7/siMCJ cells = assay: Confocal microscopy for doxorubicin accumulation; assay type: cell-based, human; details: oligomycin 5 μM with doxorubicin 3 μM, 4 h; vs doxorubicin alone
Protocol: Confocal microscopy for doxorubicin accumulation. MCF7/siMCJ cells were seeded on BD Biocoat coverslips (BD Biosciences, Bedford, Mass.) the day before the treatment. At 20 h, oligomycin (5 μM) or medium was added to the cell. After 3 h, doxorubicin (3 μM) was added and cells were further incubated for 4 h. Cells were washed with PBS and fixed in 3.7% paraformaldehyde. […] For nuclear staining, DAPI (Molecular Probes, Eugene, Oreg.) was used. Cells were visualized by confocal microscopy (Zeiss LSM 510 META Confocal Laser Scanning Imaging System, Carl Ziess Microimaging Inc, Thronwood, N.Y.). The term: MCF7/siMCJ and siMCJ/MCF7 is used interchangeably herein. Experiments were performed to determine whether reducing mitochondrial respiration in cancer cells restores the cells' sensitivity to chemotherapeutic agents. […] MCF7/siMCJ cells were treated with doxorubicin alone or doxorubicin and oligomycin (an inhibitor of Complex V/ATP synthase) at a concentration of 5 μM for 4 h. Doxorubicin intrinsic fluorescence in the cells was viewed by confocal microscopy. The DAPI dye was used as a nuclear maker.

MCF7/ADR cells [1] = assay: Viable cell count of MCF7/ADR cells (Trypan blue); assay type: cell-based, human
Protocol: (§1) FIG. 15A provides results of Western blot analysis for MCJ in MCF7 cells and MCF7/ADR (ADR) cells. Actin was used as loading control. […] Viable cells were counted 2 days later.
FIG. 16A-B provides graphs showing response to MCJ agonists. […] Cells were harvested 2 days later and viable cells were counted. […] Mice were harvested at day 4. The size of a tumor over time was determined by caliper measurements, and is represented as a percentage relative to the initial size prior to the treatment. p<0.05 as determined by a paired t-test.
(§2) Cell Culture. MCF7 and MCF7/ADR cells were a kind gift from Dr. Ken Cowan (National Cancer Institute, Bethesda, Md.). MCF7/siMCJ cells were generated by stable transfection with a plasmid expressing a shRNA for MCJ (siMCJ) as described in Hatle, K. M., et al., Mol Cell Biol 27, 2952-2966 (2007). All cells were maintained at 37 C, 5% CO2 in RPMI-1640 (Life technologies, Inc., Gaithersburg, Md.) containing 5% FBS.
(§3) Cell count. Cells were trypsinized, washed, and resuspended in medium. Number of viable cells was measured by counting using Trypan blue dye to exclude dead cells (visualized as blue).
(§4) Doxorubicin and peptides treatment in vitro. Doxorubicin (Sigma-Aldrich) was used at 3 μM final concentration. The three different peptides described in the examples (SEQ ID NO: 2, 18 or 6) were resuspended at 10 mM stock concentration in PBS. The peptides were used a different concentration as indicated for each example (1, 10, or 50 μM). Cells were plated the day prior the treatment (18-20 h prior to the treatment). For treatments with peptides only, peptides were added to the plates at the indicated concentrations, and after 2 or 3 days (as indicated for each example) cells were trypsinized, resuspended, and counted. For the treatment with doxorubicin and peptides, cells were pretreated with the corresponding peptide for 4 h prior to adding doxorubicin.
MCF7/ADR cells were incubated (using standard procedures) for three days in media alone or in media plus three different MCJ based polypeptides each at a concentration of 50 μM in media. The cells of set one were incubated in media and served as a control set. The cells of set two were incubated in media that included a 50 μM concentration of a MCJ polypeptide without a targeting agent polypeptide. The amino acid sequence of the N-MCJ polypeptide without a targeting agent polypeptide was […] (SEQ ID NO:2). The cells of set three were incubated in media that included a 50 μM concentration of a TAT-N-MCJ polypeptide. The amino acid sequence of the TAT-N-MCJ polypeptide was: […] (SEQ ID NO:18). […]

MCF7 cells = assay: Viable cell count of MCF7 cells (Trypan blue); assay type: cell-based, human; details: 25 μM, 2 days
Description: as §1, §2, §3, §4
MCF7 cells and MCF7/ADR cells were incubated (using standard procedures) for two days in media alone or in media that included different concentrations of the TAT-N-MCS-MTS polypeptide having the amino acid sequence set forth as: […]

MCF7/ADR cells [2] = assay: Seahorse MitoStress assay, oxygen consumption rate (OCR); assay type: cell-based, human
Protocol: FIG. 14A-C provides graphs showing effect of MCJ agonist polypeptides on OCR and respiratory capacity of cells. […] Cells pretreated with medium alone (medium), TAT-N-MCJ-mts peptide (TAT peptide) (50 μM) (FIG. 14A) or MITO-N-MCJ peptide (Mito peptide) (25 μM) (FIG. 14B) for the last 9 h prior to the MitoStress assay as described elsewhere herein. Standard flow chart for the treatments as recommended by the manufacturer (Seahorse Bioscience, Billerica, Mass.) was used: oligomycin (O), FCCP (F) and rotenone and antimycin (R+A). […] Oligomycin was replaced by vehicle (buffer) or MITO-N-MCJ peptide.
Human breast cancer cell lines MCF7 cells with siRNA-mediated knockdown of MCJ (MCF7/siMCJ cells) have increased Complex I activity. Experiments were performed to examine the effect of MCJ on mitochondrial respiration using the Seahorse X24 analyzer and the MitoStress assay (used in examples herein according to manufacturer's protocols) that measures mitochondrial oxygen consumption rate (OCR), a well-accepted proxy for mitochondrial respiration (Seahorse Bioscience, North Billerica, Mass.). […] In addition, maximum respiratory capacity (determined after addition of the mitochondrial uncoupler FCCP) was also drastically higher in MCF7/siMCJ cells (FIG. 12A). Moreover, Seahorse MitoStress analysis of OCR in primary mammary tumor cells from MMTV-Py mice [Guy, C.
The agonist polypeptides were tested to determine whether they would restore particular MCJ functions and the effect of the agonist polypeptides in mitochondrial respiration was examined. […] OCR was determined by the Seahorse analyzer in MCF7/ADR cells and MCF7/ADR cells that were pretreated with the TAT-N-MCJ-mts peptide for 9 h.
Assays were performed to examine the effect of MITO-N-MCJ peptide on mitochondrial respiration when added directly on cells ongoing Seahorse mito-stress analysis. In this case, OCR was first measured at the basal level and then either vehicle (Seahorse buffer) or the MITO-N-MCJ peptide was added in one of the ports from Seahorse. […]

Molm13 cells [3] = assay: Viable cell number of Molm13 AML cells; assay type: cell-based; details: 3 days
Molm13 cells [4] = assay: Mitochondrial membrane potential by TMRE staining, flow cytometry; assay type: cell-based; details: 22 h
Protocol: (§5) FIG. 17A-D provides graphs of results showing MCJ agonist inhibition of AML. FIG. 17A-B show results when Molm13 cells (10^4 cells) were incubated in the presence of medium, TAT-N-MCJ-mts peptide (TAT) (25 μM), MITO-N-MCJ peptide (25 μM), AC220 (2 nM) or the combination of the peptides with AC220. Numbers of viable cells was measured after 3 days. […] The percentage of live cells negative for TMRE (TMREneg) is shown. […] The percentage of live PY1^+ cells is shown.
(§6) Experiments were also performed to assess the effect of MCJ agonists on mitochondrial membrane potential by staining with the TMRE dye. Given the more modest effects observed for TAT-N-MCJ-mts (FIG. 17A-B), 50 μM of this peptide was used in the experiments. […] AML cells are sensitive to the levels of reactive oxygen species (ROS), which are primarily generated in mitochondria as a result of electron leakage from the ETC. It was previously shown that MCJ can interfere with the formation of ETC respiratory supercomplexes [Hatle, K., et al., (2013) Mol Cell boil 33:2302-2314] that are formed to facilitate electron transport between complexes and minimize electron leakage [see Acin-Perez, R. et al., (2008) Mol Cell 32:529-539 and Lapuente-Brun, E. et al., (2013) Science 340:1567-1570]. […] The effect of the MCJ agonists was already observed after 5 h of treatment. […]

Molm13 cells [5] = assay: Mitochondrial ROS (mROS) by PY1 staining, flow cytometry; assay type: cell-based; details: 22 h
Protocol: as §5, §6

[6] = 25 μM in combination with AC220 2 nM

How did the “doxorubicin accumulation (intrinsic fluorescence, nucleus)” value (MCF7/siMCJ cells) turn out when `CC[C@H]1/C=C/C=C/C[C@@H](C)[C@H](O)[C@@](C)(O)C(=O)[C@@H](C)[C@H](O)[C@@H](C)C(=O)[C@@H](C)[C@H](O)[C@@H](C)/C=C/C(=O)O[C@@H]2[C@H](C)[C@H](CC1)O[C@]1(CC[C@H](C)[C@H](C[C@@H](C)O)O1)[C@H]2C` [oligomycin] was run?
Its value is “doxorubicin accumulation (in the nucleus) only in MCF7/siMCJ cells treated with doxorubicin and oligomycin”.

How did the “expansion of cells (viable cells)” value (MCF7/ADR cells [1]; 25 μM, peptide by itself, 2 days) turn out when “FxRFxKFxRFxKMAARGVIAPVGESLRYAEYL ([Cha]R[Cha]K[Cha]R[Cha]KMAARGVIAPVGESLRYAEYL) [MITO-N-MCJ, Fx is cyclohexylalanine]” was run?
Its value is “drastic effect in limiting the expansion of these resistant cells”.

And the “efficacy relative to the TAT-N-MCJ peptide” value (MCF7/ADR cells [1]; MITO-N-MCJ greater than TAT peptide)?
Its value is 2-3 times.

What about the “effect on viable cells” value (MCF7 cells) of the same molecule?
Its value is “neither of the two MCJ agonists had an effect on MCF7 cells”.

What about the “effect on OCR” value (MCF7/ADR cells [2]; 25 μM, pretreated 9 h, compared with TAT-N-MCJ-mts) of the same molecule?
The value was “even more pronounced”.

And the “mitochondrial respiration (OCR)” value (MCF7/ADR cells [2]; peptide added directly during the assay, OCR measured during 180 min, vs vehicle)?
The value was “marked reduction of mitochondrial respiration”.

And the “maximum respiratory capacity (after FCCP)” value (MCF7/ADR cells [2]; peptide added directly during the assay, vs vehicle only)?
The value was “severely compromised”.

What about the “viability (number of viable cells)” value (Molm13 cells [3]; peptide 25 μM alone) of the same molecule?
Its value is “profound effect on Molm13 cells, leading to substantial cell death”.

And the “cells refractory to AC220 (number of viable cells)” value (Molm13 cells [3]; peptide 25 μM in combination with AC220 2 nM)?
The value was “effectively eliminated this resistant group”.

And the “mitochondrial membrane potential (TMRE negative live cells)” value (Molm13 cells [4]; [6])?
The value was “the most remarkable effect”.

And the “mitochondrial membrane potential (TMRE negative live cells)” value (Molm13 cells [4]; 25 μM)?
The value was “caused a loss of mitochondrial membrane potential (TMRE negative cells) in a fraction of Molm13 cells”.

What about the “production of mROS (live PY1+ cells)” value (Molm13 cells [5]; [6]) of the same molecule?
The value was “clearly synergized with AC220 to cause a massive production of mROS”.

What about the “production of mROS (live PY1+ cells)” value (Molm13 cells [5]; 25 μM) of the same molecule?
Its value is “could induce the production of mROS”.
